# Patent US7642051B2, “Screening methods for the identification of inhibitors of human immunodeficiency virus (HIV) viral protein R (Vpr) binding to the adenine nucleotide translocator (ANT)” (priority 2000, dated 2010)
# Entries after “also recorded” stand apart in the source; their conditions may differ. Like-named read-outs stand apart in the source and are kept apart here. Where no end group is shown, it is not given here.
# T1: ANT-proteoliposomes (Rattus norvegicus, UniProt Q05962)
# T1 construct: ANT is purified from rat heart and reconstituted in liposomes; from tissue; host or cells: rat heart
# T1 sequence (Q05962 1-298): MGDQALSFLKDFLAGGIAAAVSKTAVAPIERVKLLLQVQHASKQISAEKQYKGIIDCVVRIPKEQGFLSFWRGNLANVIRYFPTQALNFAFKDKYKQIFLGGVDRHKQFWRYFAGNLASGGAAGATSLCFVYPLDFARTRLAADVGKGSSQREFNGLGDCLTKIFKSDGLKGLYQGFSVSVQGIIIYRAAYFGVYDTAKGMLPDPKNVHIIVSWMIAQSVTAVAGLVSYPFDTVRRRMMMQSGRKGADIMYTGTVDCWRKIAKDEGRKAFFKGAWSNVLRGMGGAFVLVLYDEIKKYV
# T2: ANT (Rattus norvegicus, UniProt Q05962)
# T2 construct: from tissue; host or cells: rat heart
# T2 sequence (Q05962 whole entry, looked up): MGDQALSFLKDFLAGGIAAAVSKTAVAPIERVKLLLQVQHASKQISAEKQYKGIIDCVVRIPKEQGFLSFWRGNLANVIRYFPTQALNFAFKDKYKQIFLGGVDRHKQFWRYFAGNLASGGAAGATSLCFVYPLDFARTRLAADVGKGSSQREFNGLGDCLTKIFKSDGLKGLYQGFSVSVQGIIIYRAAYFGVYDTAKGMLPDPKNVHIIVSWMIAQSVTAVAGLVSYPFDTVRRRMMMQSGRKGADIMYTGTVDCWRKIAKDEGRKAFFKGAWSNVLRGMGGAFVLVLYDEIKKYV
# T3: Vpr52-96-ANT interaction (Rattus norvegicus, UniProt Q05962)
# T3 construct: from tissue; host or cells: rat heart (ANT)
# T3 sequence (Q05962 2-298 limits assumed): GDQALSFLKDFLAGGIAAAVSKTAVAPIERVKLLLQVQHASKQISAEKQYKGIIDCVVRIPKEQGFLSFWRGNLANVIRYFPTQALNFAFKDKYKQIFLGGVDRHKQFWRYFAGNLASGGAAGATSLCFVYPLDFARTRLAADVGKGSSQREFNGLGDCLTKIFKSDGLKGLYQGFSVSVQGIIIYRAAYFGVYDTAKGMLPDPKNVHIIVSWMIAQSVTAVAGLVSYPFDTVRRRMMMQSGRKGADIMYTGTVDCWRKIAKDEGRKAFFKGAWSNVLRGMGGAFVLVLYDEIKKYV
# T4: adenine nucleotide translocator (ANT), native purified, detergent-solubilized or reconstituted in liposomes / planar lipid bilayers (rat), Q05962
# T4 chain: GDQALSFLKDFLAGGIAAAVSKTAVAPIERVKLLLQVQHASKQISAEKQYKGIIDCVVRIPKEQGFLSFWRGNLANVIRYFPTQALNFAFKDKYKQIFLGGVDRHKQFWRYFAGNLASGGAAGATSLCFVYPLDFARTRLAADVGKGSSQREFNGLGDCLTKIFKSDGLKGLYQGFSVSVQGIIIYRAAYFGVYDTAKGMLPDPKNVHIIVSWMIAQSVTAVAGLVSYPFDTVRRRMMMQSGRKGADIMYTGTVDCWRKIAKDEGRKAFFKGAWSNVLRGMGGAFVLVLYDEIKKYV
# Key:
# ANT-proteoliposomes = molecular target: T1, ANT-proteoliposomes; type: binding
# Experimental: 1. Purification of ANT. ANT is purified from rat heart and reconstituted in liposomes according to the protocol described by Brenner et al., Oncogene, 2000.
# 2. Reconstitution of ANT in liposomes. ANT (0.03 mg/ml) is incorporated in liposomes composed of phosphatidylcholine and cardiolipine (PC:CL; 45:1; W: w; and 300 ng ANT per mg of lipids) in the presence of 0.3% n-octyl-β-D-pyranoside for 2 min. at room temperature. […] Then, the detergent is eliminated by dialyzing, overnight, the liposomes against the buffer 10 mM HEPES, 125 mM sucrose, pH7.4 at 4° C. (e.g.: about 11 of buffer per 1 ml liposomes).
# COS cells = test: Vpr52-96-induced ΔΨm dissipation in intact microinjected cells; type: cell-based; settings: Bcl-2 10 μM, PA10 2 μM microinjected
# Source text: A. Vpr52-96-induced ΔΨm dissipation induced in intact cells.
# Vpr52-96 = Vpr52-96 (Human immunodeficiency virus type 1 group M subtype B, UniProt P69726)
# ANT [1] = settings: 5 μM biotinylated Vpr52-96, 30 min
# Experimental: (§1) Mitochondria were pre-incubated 10 min. with the indicated inhibitors and the percentage of FITC-Vpr52-96-labelled mitochondria is determined as in A. C. […] Mitochondria were incubated with the indicated inhibitors, and then exposed for 30 min at RT with 5 μM biotinylated Vpr52-96. Mitochondria were lysed either after incubation with biotinylated Vpr52-96 (upper panel) or lysed before (lower panel) with Tris/HCl as described in materials and methods. Biotinylated Vpr52-96 complexed with its mitochondrial ligands was retained on avidin-agarose and subjected to immunoblot detection of ANT.
# purified mitochondria [2] = test: ΔΨm dissipation in purified mitochondria (JC-1 flow cytometry); type: biochemical; settings: for inhibition of Vpr-induced ΔΨm loss in purified mitochondria: 5 μM CsA, 50 μM BA, 0.8 μM Bcl-2, 2 μM PA10, Vpr52-96 3 μM, 5 min
# Experimental: C. […] Purified mitochondria were treated with 1 μM Vpr52-96 subjected to cytofluorometric determination of the percentage of mitochondria having a low ΔΨm using the ΔΨm-sensitive fluorochrome JC-1. In parallel, cytochrome c was immunodetected in the supernatant of mitochondria.
# Numbers indicate the percentage of JC-1^high and JC-1^low mitochondria among ˜10^4 events.
# E. Quantitation of the frequency of JC-1^low mitochondria (X±SD, n=5) after incubation with different Vpr-derived peptides.
# isolated mitochondria = test: Electron microscopy of isolated mitochondria (matrix swelling); type: biochemical; settings: for inhibition of Vpr-induced matrix swelling: Vpr52-96 3 μM, 0.8 μM Bcl-2 or 2 μM PA10
# Source text: C. Ultrastructural effects of Vpr on isolated mitochondria.
# purified mitochondria [3] = test: Binding of FITC-Vpr52-96 to purified mitochondria; settings: pre-incubation 10 min
# Experimental: Mitochondria were left unstained (insert in Co.) or exposed to the ΔΨm-insensitive mitochondrial dye MitoTracker® Green (75 nM), alone (MTG) or with 0.5 μM of FITC-Vpr52-96; green fluorescence), in combination with the ΔΨm-sensitive mitochondrial dye MitoTracker® Red (CMXRos; red Fluorescence) followed by cytofluorometric two-color analysis. Numbers indicate the percentage of mitochondria in each quadrant.
# as §1
# ANT [4] = molecular target: T2, ANT; type: biochemical
# Experimental: (§2) FIG. 3 presents electrophysiological properties of Vpr52-96 and ANT in planar lipid bilayers.
# (§3) Single channel recordings were performed using the “Tip-Dip” technique. The recordings shown are representative for at least three independent determinations.
# (§4) B. Statistical analysis of conductances obtained in A. Results were expressed as current distributions at different voltages. Conductances (γ; in picosiemens, pS) are calculated by division of current by voltage.
# Vpr52-96-ANT interaction = molecular target: T3, Vpr52-96-ANT interaction; type: binding; settings: BA 250 μM, Atr 50 μM, peptides 5 μM
# ANT [5] = molecular target: T5, ANT (Rattus norvegicus, UniProt Q05962); type: binding; settings: X±SD, n=5; read-out: calculated KD of the interaction of ANT with Vpr52-96
# T5 construct: from tissue; host or cells: rat heart
# Source text: A. Plasma surface resonance sensorgrams of the interaction of ANT with Vpr52-96, Vpr52-96[R73A,80A] or an irrelevant control (Co).
# B. Langmuir isotherm determined at different concentrations of ANT on sensorgrams corrected by subtraction of the blank (sensorgrams obtained with Vpr52-96[R73A,80A]).
# ANT [6] = molecular target: T5, ANT; settings: surface plasmon resonance, Jacotot et al. 2000; cited from earlier work
# ANT [7] = molecular target: T5, ANT; type: biochemical; remark: listed apart in the source
# Experimental: as §2, §3, §4
# purified mitochondria [8] = test: Respirometry of purified mitochondria (respiratory control); type: biochemical; settings: 10 min after 1 μM peptide; control mitochondria 5.3
# Experimental: A. Oxygen consumption curves after addition of the indicated agents. Trace a: control mitochondria (no pretreatment). Trace b: mitochondria pretreated for 10 min with 1 μM Vpr52-96. Numbers along the traces are nmol of 02 consumed min^−1 mg^−1 protein.
# B. Respiratory control (RC) values calculated by dividing oxygen consumption in the presence of CCCP by that measured with oligomycin (determined as in A), 10 min after addition of 1 μM of Vpr-derived peptides (mean values of 3 determinations).
# [9] = molecular target: T4, adenine nucleotide translocator (ANT), …; test: cell-based or functional assay
# [10] = molecular target: T4, adenine nucleotide translocator (ANT), …; test: flow cytometry of liposomes; FITC-Vpr52-96 on ANT-proteoliposomes
# [11] = molecular target: biotin-Vpr52-96 (biotinylated C-terminal moiety of HIV-1 Vpr) (HIV-1), P12520; test: surface plasmon resonance, Langmuir isotherm, peptide on biotinylated Vpr52-96
molecule,measurement,setting,value
Bcl-2: recombinant human Bcl-2 protein,effect on Vpr52-96 binding to membrane-associated ANT (ANT proteoliposomes),ANT-proteoliposomes,reduced Vpr52-96 binding
same,prevention of Vpr effect on intact cells by microinjection,COS cells,prevented
same,binding of Bcl-2 to Vpr52-96,Vpr52-96,did not bind Vpr52-96
same,"effect on affinity purification of ANT with biotinylated Vpr52-96, intact mitochondria",ANT [1],reduced the Vpr52-96-mediated recovery of ANT
same,inhibition of Vpr-induced ΔΨm loss in purified mitochondria,purified mitochondria [2],inhibited; also recorded: strongly reduced
same,inhibition of Vpr-induced matrix swelling,isolated mitochondria,inhibited; also recorded: strongly reduced
same,effect on binding of Vpr52-96 to purified mitochondria,purified mitochondria [3],failed to impair the binding
same,effect on formation of Vpr52-96 induced channels in ANT-containing lipid bilayers,ANT [4],abolished the formation of Vpr52-96 induced channels
"CO[C@H](C/C=C\C=C\CC/C=C/C[C@H](C)/C=C/C(=C\C(=O)O)CC(=O)O)/C(C)=C\C=C(/C)C(=O)O [BA, bongkrekic acid, reference compound]",effect on Vpr52-96 binding to membrane-associated ANT (ANT proteoliposomes),"ANT-proteoliposomes; BA 50 μM, Bcl-2 800 nM",inhibited
same,inhibition of Vpr-induced ΔΨm loss in purified mitochondria,purified mitochondria [2],inhibited
same,inhibition of Vpr-induced matrix swelling,isolated mitochondria,inhibited
same,effect on binding of Vpr52-96 to purified mitochondria,purified mitochondria [3],partially reduced
same,modulation of the Vpr52-96-ANT interaction by ANT ligands and peptides,Vpr52-96-ANT interaction,reduces Vpr binding
"C=C1[C@@H]2CC[C@H]3[C@]4(C)C[C@H](O[C@@H]5O[C@H](CO)[C@@H](OS(=O)(=O)O)[C@H](OS(=O)(=O)O)[C@H]5OC(=O)CC(C)C)C[C@@H](C(=O)O)[C@H]4CC[C@]3(C2)[C@H]1O [Atr, atractyloside]",modulation of the Vpr52-96-ANT interaction by ANT ligands and peptides,Vpr52-96-ANT interaction,favors Vpr binding
CC[C@H](C)[C@H](NC(=O)[C@H](C)NC(=O)[C@H](CCC(=O)O)NC(=O)[C@@H](NC(=O)CNC(=O)[C@H](C)NC(=O)[C@H](Cc1c[nH]c2ccccc12)NC(=O)[C@@H](NC(=O)[C@@H](N)CC(=O)O)[C@@H](C)O)C(C)C)C(=O)N[C@H](C(=O)N[C@@H](CCCNC(=N)N)C(=O)N[C@H](C(=O)N[C@@H](CC(C)C)C(=O)N[C@@H](CCC(N)=O)C(=O)N[C@@H](CCC(N)=O)C(=O)N[C@@H](CC(C)C)C(=O)N[C@@H](CC(C)C)C(=O)N[C@@H](Cc1ccccc1)C(=O)N[C@H](C(=O)N[C@@H](Cc1c[nH]cn1)C(=O)N[C@@H](Cc1ccccc1)C(=O)N[C@@H](CCCNC(=N)N)C(=O)N[C@H](C(=O)NCC(=O)N[C@@H](CS)C(=O)N[C@@H](CCCNC(=N)N)C(=O)N[C@@H](Cc1c[nH]cn1)C(=O)N[C@@H](CO)C(=O)N[C@@H](CCCNC(=N)N)C(=O)N[C@H](C(=O)NCC(=O)N[C@H](C(=O)N[C@H](C(=O)N[C@@H](CCCNC(=N)N)C(=O)N[C@@H](CCC(N)=O)C(=O)N[C@@H](CCCNC(=N)N)C(=O)N[C@@H](CCCNC(=N)N)C(=O)N[C@@H](C)C(=O)N[C@@H](CCCNC(=N)N)C(=O)N[C@@H](CC(N)=O)C(=O)NCC(=O)N[C@@H](C)C(=O)N[C@@H](CO)C(=O)N[C@@H](CCCNC(=N)N)C(=O)N[C@@H](CO)C(=O)O)[C@@H](C)O)C(C)C)[C@@H](C)CC)[C@@H](C)CC)[C@@H](C)CC)[C@@H](C)CC)[C@@H](C)CC [Vpr52-96],Vpr52-96 binding to ANT liposomes compared to protein-free liposomes,ANT-proteoliposomes,greatly facilitated
same,Kd,ANT [5],9.7 ± 6.4 nM
same,timing of ΔΨm loss relative to cytochrome c release,purified mitochondria [2]; Vpr52-96 1 μM,well before cytochrome c release can be detected
same,affinity of Vpr C-terminus for purified ANT,ANT [6],high affinity in the nanomolar range
same,ultrastructural effect on mitochondria,"isolated mitochondria; 3 μM, 5 or 15 min",matrix swelling before OM rupture became apparent
same,conductance of Vpr52-96-ANT channels without any further addition,ANT [7]; as printed in Example 4,190±2
same,channel formation in planar lipid bilayers without ANT,"ANT [7]; low doses (<1 nM), no ANT",incapable of forming channels
same,respiratory control (RC) value,purified mitochondria [8],1.1
"DTWAGVEAIIRILQQLLFIHFRIGCRHSRIGVTRQRRARNGASRS (modifications not checked) [Vpr52-96, P12520 52-96]",conductance of Vpr52-96-ANT channels in the presence of Bax,[9],245
same,conductance of channels in planar lipid bilayers,[9],190 pS
"DTWAGVEAIIRILQQLLFIHFRIGCRHSRIGVTRQRRARNGASRS (not fully specified) [FITC-labeled Vpr52-96, P12520 52-96]",EC50 (read off the curve),[10],900 nM
DKRTQFWRYFAGN (modifications not checked) [ANT-2-derived peptide ANT104-116],Kd,[11],35000 nM
